The source of these data is US8101628B2, “Imidazolidinonyl aminopyrimidine compounds for the treatment of cancer” (Eli Lilly and Company, priority 2007, dated 2012).

The conditions of series [1]: in man, cited from earlier work.
For series [2], the system named is HCT116, A549 and NCIH460 murine xenografts. To be noted: cited from earlier work.
The target of series [3] is T1, Plk1-Flag-His6 tag fusion enzyme (Human Plk1) (Homo sapiens, UniProt P53350).
T1 construct: made in house; host or cells: Sf9 cells (baculovirus, pFastBac vector)
T1 sequence (P53350 whole entry, the tested form may be a part): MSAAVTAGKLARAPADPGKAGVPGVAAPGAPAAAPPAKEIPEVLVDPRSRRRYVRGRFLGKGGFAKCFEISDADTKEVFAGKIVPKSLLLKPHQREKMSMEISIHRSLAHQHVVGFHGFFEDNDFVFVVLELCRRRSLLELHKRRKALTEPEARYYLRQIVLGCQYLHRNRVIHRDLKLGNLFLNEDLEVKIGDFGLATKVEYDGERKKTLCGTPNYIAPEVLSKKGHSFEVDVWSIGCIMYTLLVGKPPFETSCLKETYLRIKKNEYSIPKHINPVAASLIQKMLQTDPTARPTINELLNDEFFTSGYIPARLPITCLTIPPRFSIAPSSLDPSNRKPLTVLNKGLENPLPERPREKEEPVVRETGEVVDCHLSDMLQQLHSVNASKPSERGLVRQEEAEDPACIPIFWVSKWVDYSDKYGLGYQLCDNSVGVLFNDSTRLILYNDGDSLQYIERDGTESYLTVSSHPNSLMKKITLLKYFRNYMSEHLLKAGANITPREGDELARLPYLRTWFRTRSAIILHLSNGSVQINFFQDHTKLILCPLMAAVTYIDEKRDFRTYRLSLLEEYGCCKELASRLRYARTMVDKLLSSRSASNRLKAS
As to the kind of experiment: Plk1 Inhibition Assay. To be noted: 5.0 μM ATP, GST-Cdc25c (1-206) substrate, 60 min room temperature; MSR 3.6; read-out: Plk1 IC50 (absolute IC50). Format: biochemical. The source says: Human Plk1 cDNA, which may be obtained from a number of sources, such as Incyte (accession number: NM_005030), may be directly linked at one of its termini with a polynucleotide sequence expressing a His6 tag, such as the C-terminal FLAG-His6 tag, and inserted into an appropriate expression vector, such as a pFastBac™ vector (Invitrogen) and transfected into an appropriate system, such as baculovirus similar to what has been reported by Yue-Wei Qian, et al., Science 282, 1701 (1998) for xPlkk1. If a viral expression system is used, then the virus (e.g., baculovirus bearing a Plk1-Flag-His6 tag polynucleotide construct) is infected into a culture of a suitable host cell, such as Sf9 cells. […]
Plk1 kinase reactions contain Plk1-Flag-His6 tag fusion enzyme (0.2 ng/μL) in a buffer containing 50 mM HEPES, pH 7.3, 1.0 mM dithiothreitol, 5.0 μM ATP, 10 mM MgCl2, 0.01% TRITON® X-100, 0.4 μCi ^33P-ATP, and 0.06 μg/μL GST-Cdc25c (1-206) peptide. […] Wells are dried before addition of 40 μL of MicroScint™20 (Packard) and then counted on a Wallac MICROBETA® Jet. The percentage inhibition values from the 10-point concentration response data are subsequently analyzed, for example, using ACTIVITY BASE™ software (IDBS), using a 4-parameter logistic equation. Absolute IC50 values are calculated from the resulting curve fit.

Another series has as its system HeLa Cells. As to the kind of experiment: pHH3(S10), Mitotic Cells, and DNA Content Assays. To be noted: Homo sapiens, 23 hours exposure. Format: cell-based. The procedure:
HeLa Cells from the American Type Culture Collection (ATCC) are plated at 200 cells/well in 96 well […] BIOCOAT™ plates, and are incubated in MEM (Minimum Essential Medium, e.g., GIBCO, catalog #11095) with 10% FBS (Fetal Bovine Serum) in 37° C., 5% CO2 for 24 hours. Cells are treated by adding compound (in 0.25% DMSO) to the medium, dosing at 10 points across the range 0.5 μM to 0.0098 μM. After 23 hours exposure to the compounds, cells are fixed, for example with the PREFER™ fixative [Anatech LTD., Catalog #414] for 30 min then are permeabilized with 0.1% TRITON® X100 in phosphate buffered saline (PBS) solution for 15 min. Cells are washed 3 times with PBS then digested with 50 μg/mL RNAse. Primary antibody, phosphohistone H3 (Upstate Cat#06-570), is added at 1:500 in PBS with 1% bovine serum albumin (BSA) to the cells over night at 4° C. After 3 PBS washes, cells are incubated with Alexa488 labeled secondary antibody (Invitrogen cat #A11008) for 1 hour at room temperature. Again they are washed 3 times with PBS, and then 15 μM propidium iodide (Molecular Probes cat #P3566) is added for 30 min to stain nuclei. Fluorescence Plates are scanned with ACUMEN EXPLORER™ [Laser-scanning fluorescence microplate cytometer (comprising of 488 nm argon ion laser excitation and multiple photomultiplier tube detection), manufactured by TTP LABTECH LTD] to measure phosphohistone H3, DNA content and mitotic cells as measured by DNA condensation. Image analyses are based on cellular fluorescent signals for identifying cells in different subpopulations. pHH3(S10) positive cells are identified by mean intensity at 500-530 nm above the threshold. Total intensity at 655-705 nm from propidium iodide/DNA is used to identify individual cells (cells with DNA content from 2N to 4N) and subpopulations in cell cycle (2N cells, 4N cells). Peak intensity at 575-640 nm is used to identify DNA condensation that is used as the marker to identify mitotic cells among 4N cells. […] The EC50 is determined by curve fitting to a four parameter logistic for each output using ACTIVITY BASE™. […]

Another series has as its system HCT116 cells. As to the kind of experiment: Antiproliferative Assay. Format: cell-based. To be noted: Homo sapiens, HCT-116, e.g. 72 hours exposure, Alamar Blue, n=3, MSR 3.1. The protocol: The effects of compounds on cell proliferation can be determined using cells and cell proliferation methods well-known in the art (Robert C. Squatrito et al., Gynecological Oncology, 58, 101-105, (1995)). For example, HCT116 cells, which may be obtained from the American Type Culture Collection, may be seeded at 2000 cells/well in 96-well plates and allowed to attach overnight in a humidified CO2 incubator at 37° C. Following the 20-24 hour incubation, half-log serially diluted compounds are added and the plates are returned to the incubator. After an appropriate length of exposure (e.g., 72 hours), cell proliferation is estimated using well-known methods. In one method, 10 μL of a tetrazolium salt, such as Alamar Blue™ is added to the cell plates. After an appropriate exposure to the dye, fluorescence (530 nm excitation, 580 nm emission) is determined. The resulting IC50 has an MSR of 3.1.

Read-outs that look alike come from different tables or passages of the source.

One may read the IC50 as the point on the concentration scale where inhibition reaches its midpoint. The EC50 is the concentration needed to bring the measured effect to its halfway point.

On to `CC[C@@H]1C(=O)N(C)c2cnc(Nc3ccc(C(=O)NC4CCN(C)CC4)cc3OC)nc2N1C1CCCC1` [BI-2536], for which the “clearance (CL)” value in series [1] (phase II clinical trials) was over 1000 mL/min. For the same compound, in series [1], the dose-limiting toxicity result was “dose limited by myelosupression”. Further, the “activity in preclinical xenograft models” value in series [2] is reported as “demonstrated activity”.
On to `O=C1NCCN1CCNc1ncc(Cl)c(-c2cc3cccc(-c4cc(F)ncc4Cl)c3s2)n1` [Example 13, 1-(2-{5-Chloro-4-[7-(5-chloro-2-fluoropyridin-4-yl)-benzo[b]thiophen-2-yl]pyrimidin-2-ylamino}ethyl)imidazolidin-2-one], for which the IC50 was about 23 nM in series [3] and 11 nM with HCT116 cells. Moreover, the EC50 with HeLa Cells (n=1, MSR 2.5, read-out: mitotic EC50) amounted to 45 nM; in the series with HeLa Cells (n=2, MSR 2.4, read-out: DNA content EC50), 40 nM; with HeLa Cells (n=2, MSR 2.6, read-out: pHH3(s10) EC50), 42 nM.
